Assays:
[1] = Lipophilicity, log D of the compound at pH 7.4; assay type: physicochemical; conditions: buffer
[2] = Half life in human liver microsomes; assay type: ADME
[3] = Inhibition of HIV-1 RDDP after 30 mins by scintillation counting analysis in presence of [3H]-TTP; set-up: species or system Human immunodeficiency virus 1

| Compound | logD [1] | half-life [2] [min] | IC50 [3] [µM] |
| --- | --- | --- | --- |
| CCc1nc(C)n(CC)c1Oc1cc(C#N)cc(C#N)c1 | 1.9 | 101 | 0.131 |
| CCc1nc(C)n(CC)c1Oc1cc(Cl)cc(C#N)c1 | 3.2 | 16 | 0.018 |

From ChEMBL document CHEMBL3217441, “Aromatic chloride to nitrile transformation: medicinal and synthetic chemistry” (Medchemcomm, 2010)
